Measurements published in ChEMBL document CHEMBL3817828, “Design, synthesis and evaluation of novel tetrahydrothieno[3,2-c]pyridine derivatives as potent smoothened antagonists” (Medchemcomm, 2016).

Columns and labels:
[1] = Inhibition of Hh receptor (unknown origin) expressed in SAG-stimulated mouse NIH3T3 cells incubated for 24 hrs by Gli-luciferase reporter gene assay; type: cell-based; conditions: NIH3T3, 24 h
[2] = target: Protein smoothened (Homo sapiens, UniProt Q99835); test: Displacement of BODIPY-cyclopamine from human Smo expressed in HEK293 cells incubated for 3 hrs by fluorescence competitive displacement assay; type: cell-based
Chain of Protein smoothened (Q99835 whole entry): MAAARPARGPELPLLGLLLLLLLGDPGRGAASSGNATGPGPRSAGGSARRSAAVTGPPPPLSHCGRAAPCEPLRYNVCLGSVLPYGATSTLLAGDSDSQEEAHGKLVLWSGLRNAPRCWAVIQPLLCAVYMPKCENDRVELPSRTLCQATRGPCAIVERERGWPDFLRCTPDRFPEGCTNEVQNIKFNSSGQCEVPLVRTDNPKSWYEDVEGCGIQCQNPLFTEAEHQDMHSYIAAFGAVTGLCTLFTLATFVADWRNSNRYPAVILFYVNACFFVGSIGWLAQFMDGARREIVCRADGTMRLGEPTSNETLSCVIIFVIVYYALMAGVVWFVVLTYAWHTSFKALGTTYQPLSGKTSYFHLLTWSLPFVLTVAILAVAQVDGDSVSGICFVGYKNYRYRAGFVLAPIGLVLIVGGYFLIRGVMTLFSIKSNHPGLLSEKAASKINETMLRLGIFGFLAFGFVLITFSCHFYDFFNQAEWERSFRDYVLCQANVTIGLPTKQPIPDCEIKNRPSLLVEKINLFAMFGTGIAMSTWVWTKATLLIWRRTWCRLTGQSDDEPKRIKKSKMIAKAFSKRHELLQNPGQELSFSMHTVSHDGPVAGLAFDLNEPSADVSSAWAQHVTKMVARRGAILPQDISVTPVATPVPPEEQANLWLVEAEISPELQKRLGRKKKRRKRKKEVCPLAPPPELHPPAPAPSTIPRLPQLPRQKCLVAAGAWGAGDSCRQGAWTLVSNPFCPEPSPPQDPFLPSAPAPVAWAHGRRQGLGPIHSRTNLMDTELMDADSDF

SMILES	IC50 [1] [nM]	IC50 [2] [nM]
Cn1c(-c2cccc(N3CCc4sc(C(=O)N5CCN(c6ccccc6F)CC5)cc4C3)c2)nc2ccccc21	760	–
Cn1c(-c2cccc(N3CCc4sc(C(=O)N5CCN(C(c6ccccc6)c6ccccc6)CC5)cc4C3)c2)nc2ccccc21	> 15000	–
Cn1c(-c2cccc(N3CCc4sc(C(=O)N5CCN(c6ccc(Cl)c(Cl)c6)CC5)cc4C3)c2)nc2ccccc21	270	456
CN(C)C(=O)c1cc2c(s1)CCN(c1cccc(-c3nc4ccccc4n3C)c1)C2	1560	–
Cn1c(-c2cc(N3CCc4sc(C(=O)N5CCCC5)cc4C3)ccc2Cl)nc2ccccc21	220	315
Cn1c(-c2cccc(N3CCc4sc(C(=O)N5CCN(c6ccccn6)CC5)cc4C3)c2)nc2ccccc21	340	–
Cn1c(-c2cccc(N3CCc4sc(C(=O)N5CCC(O)CC5)cc4C3)c2)nc2ccccc21	280	431
Cn1c(-c2cccc(N3CCc4sc(C(=O)N5CCCC5)cc4C3)c2)nc2ccccc21	260	352
Cn1c(-c2cccc(N3CCc4sc(C(=O)N5CCN(S(C)(=O)=O)CC5)cc4C3)c2)nc2ccccc21	220	373
Cn1c(-c2cc(N3CCc4sc(C(=O)N5CCOCC5)cc4C3)ccc2Cl)nc2ccccc21	60	18
Cn1c(-c2cccc(N3CCc4sc(C(=O)N5CCN(C(=O)c6ccco6)CC5)cc4C3)c2)nc2ccccc21	490	–
Cn1c(-c2cccc(N3CCc4sc(C(=O)N5CCN(C(=O)OC(C)(C)C)CC5)cc4C3)c2)nc2ccccc21	2080	–
Cn1c(-c2cccc(N3CCc4sc(C(=O)N5CCN(c6cccc(Cl)c6)CC5)cc4C3)c2)nc2ccccc21	380	–
CN1CCN(C(=O)c2cc3c(s2)CCN(c2ccc(Cl)c(-c4nc5ccccc5n4C)c2)C3)CC1	130	135
Cn1c(-c2cccc(N3CCc4sc(C(=O)N5CCN(c6ncccn6)CC5)cc4C3)c2)nc2ccccc21	150	237
Cc1ccc(NC(=O)c2cc3c(s2)CCN(c2cccc(-c4nc5ccccc5n4C)c2)C3)cc1	1630	–
Cn1c(-c2cc(N3CCc4sc(C(=O)N5CCN(c6ncccn6)CC5)cc4C3)ccc2Cl)nc2ccccc21	90	92
CN1CCN(C(=O)c2cc3c(s2)CCN(c2cccc(-c4nc5ccccc5n4C)c2)C3)CC1	170	326
CC(C)CNC(=O)c1cc2c(s1)CCN(c1cccc(-c3nc4ccccc4n3C)c1)C2	1720	–
Cn1c(-c2cccc(N3CCc4sc(C(=O)N5CCN(c6ccc(F)cc6)CC5)cc4C3)c2)nc2ccccc21	320	–
Cn1c(-c2cccc(N3CCc4sc(C(=O)Nc5ccc(F)c(F)c5)cc4C3)c2)nc2ccccc21	270	–
CC(=O)N1CCN(C(=O)c2cc3c(s2)CCN(c2cccc(-c4nc5ccccc5n4C)c2)C3)CC1	370	–
CS(=O)(=O)c1ccc(C(=O)Nc2ccc(Cl)c(-c3ccccn3)c2)c(Cl)c1 [VISMODEGIB]	25	–

The remaining compounds from weak to strong by IC50 [1], led by results:

IC50 [1] [nM]	IC50 [2] [nM]	SMILES
2350	–	COc1ccccc1N1CCN(C(=O)c2cc3c(s2)CCN(c2cccc(-c4nc5ccccc5n4C)c2)C3)CC1
1760	–	Cn1c(-c2cccc(N3CCc4sc(C(=O)N5CCN(c6cccc(C(F)(F)F)c6)CC5)cc4C3)c2)nc2ccccc21
1410	–	CNC(=O)c1cc2c(s1)CCN(c1cccc(-c3nc4ccccc4n3C)c1)C2
1340	–	CCN(CC)C(=O)c1cc2c(s1)CCN(c1cccc(-c3nc4ccccc4n3C)c1)C2
1320	–	Cn1c(-c2cccc(N3CCc4sc(C(=O)N5CCN(c6ccccc6)CC5)cc4C3)c2)nc2ccccc21
1260	–	COc1ccc(N2CCN(C(=O)c3cc4c(s3)CCN(c3cccc(-c5nc6ccccc6n5C)c3)C4)CC2)cc1
850	–	Cn1c(-c2cccc(N3CCc4sc(C(=O)Nc5ccccc5)cc4C3)c2)nc2ccccc21
660	–	COc1cccc(NC(=O)c2cc3c(s2)CCN(c2cccc(-c4nc5ccccc5n4C)c2)C3)c1
450	–	Cn1c(-c2cccc(N3CCc4sc(C(=O)Nc5ccc(Br)cc5)cc4C3)c2)nc2ccccc21
360	–	Cn1c(-c2cccc(N3CCc4sc(C(=O)Nc5ccccc5F)cc4C3)c2)nc2ccccc21
350	–	Cn1c(-c2cccc(N3CCc4sc(C(=O)Nc5ccc(F)c(Br)c5)cc4C3)c2)nc2ccccc21
350	–	CCN1CCN(C(=O)c2cc3c(s2)CCN(c2cccc(-c4nc5ccccc5n4C)c2)C3)CC1
330	–	CC1CCCCN1C(=O)c1cc2c(s1)CCN(c1cccc(-c3nc4ccccc4n3C)c1)C2 (centres undefined)
310	–	Cc1ccc(NC(=O)c2cc3c(s2)CCN(c2cccc(-c4nc5ccccc5n4C)c2)C3)cc1Cl
240	217	Cn1c(-c2cc(N3CCc4sc(C(=O)N5CCN(S(C)(=O)=O)CC5)cc4C3)ccc2Cl)nc2ccccc21
210	294	Cn1c(-c2cccc(N3CCc4sc(C(=O)N5CCOCC5)cc4C3)c2)nc2ccccc21
200	261	Cn1c(-c2cccc(N3CCc4sc(C(=O)Nc5cccnc5)cc4C3)c2)nc2ccccc21
190	192	Cn1c(-c2cc(N3CCc4sc(C(=O)N5CCC(O)CC5)cc4C3)ccc2Cl)nc2ccccc21
160	213	Cn1c(-c2cc(N3CCc4sc(C(=O)N5CCN(c6ccc(Cl)c(Cl)c6)CC5)cc4C3)ccc2Cl)nc2ccccc21
140	56	Cn1c(-c2cc(N3CCc4sc(C(=O)Nc5cccnc5)cc4C3)ccc2Cl)nc2ccccc21
